Reference: patent publication US20260335293A1, “USE OF NOVEL COMPOUND FOR TREATING INTRACTABLE DISEASES” (YJ CERAPEUTICS INC., priority 2023, published 2026)

Experiments:
sedation = experiment: Sedation as side effect of the drug; type: in vivo, Sprague-Dawley rats
[1] = system: neuropathic pain (mechanical allodynia) in SCI, LSS and SNI animal models; experiment: Mechanical allodynia (von Frey, 50% threshold) in SCI, LSS and SNI neuropathic pain models; type: in vivo, Sprague-Dawley rats; conditions: i.p. 5 mg/kg; at 1 hour after administration
Procedure: To be used as a central nerve injury animal model, a traumatic spinal cord injury (SCI) model was prepared (FIG. 1A). Specifically, 230 to 250 g of male adult Sprague-Dawley rats were anesthetized by intraperitoneal injection of chloral hydrate (500 mg/kg), and then the back and neck regions were shaved, and the spinal cord under the back and neck regions was exposed without damaging the dura mater, and a laminectomy was performed at T9 to T10 levels. To stabilize the spine, the spinous processes of T8 and T11 were fixed, and the spine was damaged by free-falling a 10 g weight from a height of 25 mm using an NYU impactor onto the back surface of the exposed spinal cord and then the rats were left in a temperature and humidity-controlled chamber overnight while covering the muscles and skin. After surgery, the rats were subcutaneously injected with a supplement solution (5 ml, lactated ringer) and injected with antibiotics (gentamicin, 5 mg/kg, intramuscular injection) once daily for 5 days. The body weight, remaining food, and the weight of water were confirmed and recorded for all animals, and the bladder was emptied twice daily by passive bladder massage until reflex micturition was established. At this time, a Sham group was a group that was subjected to only laminectomy without damage.
To be used as a peripheral nerve injury animal model, a lumbar spinal stenosis (LSS) model was prepared (FIG. 1B). Specifically, 260 to 280 g of adult male Sprague-Dawley rats were anesthetized with intraperitoneal injection of chloral hydrate (500 mg/kg), the back region was shaved, and then the spinal plate was exposed at L4 to S2 levels. After removing the ligamentous section between L4 and L5, a trapezoidal silicone block (1.00 mm long×1.3 to 1.2 mm wide×1.0 mm high) was inserted into the epidural space below the L5 and L6 spinal plates without damaging the dural sac. At this time, a Sham group was a group that was subjected to only posterior […] on the animal without inserting a silicone block.
To be used as a peripheral nerve injury animal model, a sciatic nerve injury (SNI) model was prepared (FIG. 1C). Specifically, 200 to 220 g of male adult Sprague-Dawley rats were anesthetized by intraperitoneal injection of chloral hydrate (500 mg/kg), and then three terminal branches (tibial, common peroneal, and sural nerves) of the right sciatic nerve were approached, and the tibia nerve and the peroneal nerve were tightly ligated with 4-0 silk, and neurectomy was performed at a distal 3 mm position of the ligation site. At this time, a Sham group was a group that exposed only the sciatic nerve without damage.
In order to confirm a neuropathic pain inhibitory effect of YJ102 (Chemical Formula 1), a compound of the present disclosure, in the three nerve injury animal models prepared in Example 1 above, rats having pain on week 3 (SNI model) or week 4 (SCI model and LSS model) after surgery were selected and administered orally (p.o.) at 10 mg/kg or 20 mg/kg of YJ102 dissolved in a solution of DMSO, methyl pyrrolidinone, and water (1:1.5:1), or intraperitoneally injected (i.p. injection) at 1, 2, or 5 mg/kg of YJ102. In a positive control group, gabapentin or pregabalin dissolved in saline was intraperitoneally injected at a concentration of 5 mg/kg, and in a Vehicle group, the same amount of a solution of DMSO, methyl pyrrolidinone, and water was administered. Thereafter, in order to measure mechanical allodynia, the rats were located at the bottom of a transparent plastic box (10 cm×10 cm) on top of a wire mesh (3 mm×3 mm) and subjected to an adaptation period for approximately 20 minutes. Von-Frey filaments were applied to the soles of both paws and used with stiff nylon von-Frey monofilament series ([…], Stoelting, WoodDale, IL, USA; equivalent in grams to 0.4, 0.6, 1.0, 2.0, 4.0, 6.0, 8.0 and 15.0) with logarithmic increases in tactile (mechanical) sensitivity. […]

NCC1(CC(=O)O)CCCCC1 [gabapentin, reference compound]
sedation (sedation; 50 mg/kg): sedation as a side effect of the drug was observed | analgesic effect [1]: significant analgesic effect

CC(C)C[C@H](CN)CC(=O)O [pregabalin, reference compound]
sedation (sedation; 20 mg/kg): sedation as a side effect of the drug was observed | analgesic effect [1]: significant analgesic effect
